Test results: US20140221485A1, “LIPOPHILIC DOPAMINE DERIVATIVES AND THEIR USE” (NOVALIQ GMBH, priority 2011, published 2014)
“Also recorded” adds a separate entry of the source.

How the values were obtained:
DDIT3 = test: UPR target gene transcription by qPCR in endothelial cells; type: cell-based; conditions: 100 μM, 24 h
Description: (§1) Endothelial cells were stimulated for 24 h with 100 μM of NOD, NOT, BB, BBNB or BBNO (see Table 1 for compound structures). RNA was isolated from each sample and transcribed into cDNA. Expression of selected UPR target genes was assessed by qPCR.

HSPA5 = test: as above; type: cell-based; conditions: 100 μM, 24 h
Description: as §1

HYOU1 = test: as above; type: cell-based; conditions: 100 μM, 24 h
Description: as §1

MANF = test: as above; type: cell-based; conditions: 100 μM, 24 h
Description: as §1

[1] = test system: Human umbilical vein endothelial cells (HUVEC); test: Hypothermic preservation of HUVEC, LDH release; type: cell-based; conditions: 100 μM for 1 h, then 24 hrs on ice in UW solution
Description: The hypothermic preservation properties of NOD, A-NOD and N-pivaloyl dopamine (also referred to as NPD, or N-[2-(3,4-dihydroxyphenyl)ethyl]tert-butylamide) were examined. Human umbilical vein endothelial cells (HUVEC) were seeded in 24 well plates and grown until confluence. Hereafter, HUVEC were stimulated for 1 h with 100 μM of NOD, A-NOD or NPD. Cells that were not treated (Md) served as control. The medium was aspirated and the cells were stored for 24 hrs on ice in University of Wisconsin (UW) solution. Cell damage was assessed by measuring lactate dehydrogenase (LDH) release, using a commercially available LDH release assay (Roche). To this end, 100 μl of supernatant was added to 100 μl of assay reaction mixture. The plates were incubated for 30 minutes and the absorption (OD490) was assessed. All experimental conditions were performed in triplicate.
An increase in LDH activity correlates with the amount of dead or damaged cells.

[2] = test system: ER stress response element (ESRE); test: ESRE luciferase reporter in transfected endothelial cells; type: cell-based; conditions: stimulated 24 hours
Description: The induction of UPR is mediated by the binding of transcription factors to an ER stress response element (ESRE) featured in the UPR (unfolded protein response) target genes. Endothelial cells were transfected by means of lentiviral transfection using a reporter luciferase construct under the control of ESRE responsive elements. After two days, the transfected cells were stimulated for 24 hours with NOD or dopamine or NPD (N-pivaloyl dopamine, also referred to as N-[2-(3,4-dihydroxyphenyl)ethyl]tert-butylamide), or N-[2-(4-hydroxyphenyl)ethyl]octanamide (referred to as NOT), or medium (control). Chemiluminescence activity of the luciferase was then measured.

VCAM-1 = test: TNF-α mediated VCAM-1 expression in HUVEC, immunoblot; type: cell-based, human; conditions: TNF-α 24 h, 100 μM compound
Description: (§2) The anti-inflammatory effects of A-NOD and NOD were examined, specifically as to their impact on TNF-α (tumour necrosis factor alpha) mediated VCAM-1 (vascular cell adhesion molecule 1) expression. Human umbilical vein endothelial cells (HUVEC) were cultured until confluence. Hereafter the cells were stimulated for 24 h with TNF-α in the presence or absence of 100 μM NOD or A-NOD. Cells that were not stimulated (M) served as control. Cells were harvested and lysed in Laemli buffer. Hereafter, 20 μL of the lysates were boiled and subjected to SDS-PAGE. The resulting gel was blotted on PVF membranes and the membrane was subsequently incubated overnight with TBS/Tween/5% dry milk powder to block unspecific binding. The upper part of the membrane was probed with an anti-VCAM-1 antibody and the lower part with an anti-HO1 antibody (heme oxygenase-1). After thoroughly washing the membrane was incubated with appropriate HRP conjugates, bands were visualized using chemoluminescence (shown in FIG. 7).

HO1 (heme oxygenase-1) = test: HO1 expression in HUVEC, immunoblot; type: cell-based, human; conditions: TNF-α 24 h, 100 μM compound
Description: as §2

Lewis rats [3] = test: Effect on body weight in ARF rat model; type: in vivo; conditions: kidneys clamped 45 min, continuous infusion 10 μL/h over 5 days, 40 μmmol/mL
Description: (§3) Kidneys of Lewis rats (n=8) were clamped for 45 min to induce acute renal failure (ARF). Afterwards the rats were treated with continuous infusions (10 μL/h over 5 days) of either saline, dopamine or N-octanoyl dopamine (NOD), using an osmotic minipump. The concentration of dopamine and NOD was 40 μmmol/mL. The rats' body weight was monitored for 5 days.

Lewis rats [4] = test: Effect on renal function (serum creatinine) in ARF rat model; type: in vivo; conditions: continuous infusion over 5 days, from day 1 vs saline and day 3 vs dopamine, P<0.05
Description: as §3, with “minipump” for “minipump. The concentration of dopamine”, “the same concentrations as in Example 3.” for “NOD was 40 μmmol/mL.”, “renal function, as measured by the serum creatinine concentration,” for “body weight”

Lewis rats [5] = test: Renal histology after ARF (ED1-cell infiltration, necrotic tubulus cells); type: in vivo, rat; conditions: in comparison with saline- and dopamine-treated rats
Text: The kidneys of the Lewis rats of examples 3 and 4 were harvested. The renal tissue was examined with regard to the infiltration by inflammatory ED1-cells and signs of necrotic tubulus cells.

TNF-α = TNF-α activity in renal tissue measured by PCR; type: in vivo, rat; conditions: ARF rats, P<0.01
UPR target genes = test: UPR gene transcription of endothelial cells under normoxic and hypoxic conditions (qPCR); type: cell-based; conditions: 100 μM, 24 h
Description: Endothelial cells were cultured for 24 h under normoxic conditions in the presence or absence of 100 μM of NOD or NOT. Cells that were cultured in the absence of either compounds (medium) served as a control. In addition, the cells were cultured under hypoxic conditions for 24 h in the presence or absence of 100 μM NOD or NOT. RNA was isolated and transcribed into cDNA. The expression of a selected set of UPR target genes was assessed by qPCR.

[6] = target: T1, protein disulfide isomerase (PDI) (Homo sapiens, UniProt P07237); test: ProteoStat PDI assay kit, fluorescence-based; type: biochemical; conditions: serial dilutions, excitation about 500 nm, emission about 603 nm
T1 construct: purchased
T1 sequence (P07237 18-508): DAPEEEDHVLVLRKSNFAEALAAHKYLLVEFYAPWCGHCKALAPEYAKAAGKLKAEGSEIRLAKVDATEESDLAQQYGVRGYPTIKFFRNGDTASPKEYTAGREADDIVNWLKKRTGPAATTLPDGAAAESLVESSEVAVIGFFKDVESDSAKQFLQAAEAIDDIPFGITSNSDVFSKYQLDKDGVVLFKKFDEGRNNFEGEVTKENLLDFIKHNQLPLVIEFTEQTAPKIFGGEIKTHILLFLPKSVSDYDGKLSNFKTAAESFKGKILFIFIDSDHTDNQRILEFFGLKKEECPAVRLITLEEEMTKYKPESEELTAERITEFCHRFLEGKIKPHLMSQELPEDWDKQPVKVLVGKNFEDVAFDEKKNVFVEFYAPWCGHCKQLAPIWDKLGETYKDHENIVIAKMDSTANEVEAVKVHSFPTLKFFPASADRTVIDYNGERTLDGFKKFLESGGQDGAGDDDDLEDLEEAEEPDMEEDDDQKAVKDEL
Description: Modulation of PDI activity by NOD was examined by using a fluorescence-based commercially available ProteoStat™ PDI assay kit and according to the kit protocol. The protocol was applied to serial dilutions of NOD, which were measured for inhibition of PDI activity using a fluorescent microplate reader at an excitation setting of about 500 nm and an emission filter of about 603 nm.

TRPV-1-receptors = TRPV-1-receptors (Homo sapiens, UniProt Q8NER1); conditions: Greffrath et al. 2011; results in desensitization of the receptor; cited from earlier work
TRPV-1-receptors, sequence (Q8NER1 whole entry): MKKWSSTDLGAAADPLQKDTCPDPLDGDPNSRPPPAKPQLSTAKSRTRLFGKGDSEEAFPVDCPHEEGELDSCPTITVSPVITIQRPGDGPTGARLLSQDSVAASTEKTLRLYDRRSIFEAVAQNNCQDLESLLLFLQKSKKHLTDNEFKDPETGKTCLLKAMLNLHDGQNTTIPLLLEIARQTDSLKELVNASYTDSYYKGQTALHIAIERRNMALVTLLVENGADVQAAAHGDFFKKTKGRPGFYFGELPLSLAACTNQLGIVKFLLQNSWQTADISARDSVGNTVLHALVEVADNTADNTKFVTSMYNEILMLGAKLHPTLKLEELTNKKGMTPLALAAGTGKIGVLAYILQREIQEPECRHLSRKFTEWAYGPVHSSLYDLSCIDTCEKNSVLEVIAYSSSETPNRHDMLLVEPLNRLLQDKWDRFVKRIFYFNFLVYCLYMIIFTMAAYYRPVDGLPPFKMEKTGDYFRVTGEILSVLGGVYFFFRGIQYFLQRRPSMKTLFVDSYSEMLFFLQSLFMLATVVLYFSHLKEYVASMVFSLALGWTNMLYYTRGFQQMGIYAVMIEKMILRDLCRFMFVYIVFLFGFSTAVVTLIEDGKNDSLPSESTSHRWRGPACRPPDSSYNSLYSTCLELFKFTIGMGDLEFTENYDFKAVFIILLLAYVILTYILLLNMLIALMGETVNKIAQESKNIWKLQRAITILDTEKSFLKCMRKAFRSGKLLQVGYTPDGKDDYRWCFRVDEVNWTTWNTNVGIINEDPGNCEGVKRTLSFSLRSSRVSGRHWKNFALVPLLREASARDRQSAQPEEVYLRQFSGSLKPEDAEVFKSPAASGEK

In the case of `CCCCNC(=O)c1cc(OC(C)=O)ccc1OC(C)=O` [BBNB], the “Relative fold-increase of transcription compared to untreated endothelial cells, 2ΔΔ Ct, DDIT3” value (from here on “Relative fold-increase … 2ΔΔ Ct, DDIT3”) (DDIT3) is reported as 0.90 fold, the “Relative fold-increase of transcription compared to untreated endothelial cells, 2ΔΔ Ct, HSPA5” value (“Relative fold-increase … 2ΔΔ Ct, HSPA5” for short) (HSPA5) is reported as 0.65 fold and the “Relative fold-increase of transcription compared to untreated endothelial cells, 2ΔΔ Ct, HYOU1” value (“Relative fold-increase … 2ΔΔ Ct, HYOU1” for short) (HYOU1) is reported as 0.84 fold. The “Relative fold-increase of transcription compared to untreated endothelial cells, 2ΔΔ Ct, MANF” value (“Relative fold-increase … 2ΔΔ Ct, MANF” for short) (MANF) was 0.99 fold.

For `CC(C)(C)C(=O)NCCc1ccc(O)c(O)c1` [NPD, N-[2-(3,4-dihydroxyphenyl)ethyl]tert-butylamide], the “LDH activity (LDH release, OD490) compared to untreated cell control (Md)” value [1] was “significantly lower”.

For `CC(=O)Oc1ccc(OC(C)=O)c(C(=O)O)c1` [BB], the “Relative fold-increase … 2ΔΔ Ct, DDIT3” value (DDIT3) was 1.01 fold, the “Relative fold-increase … 2ΔΔ Ct, HSPA5” value (HSPA5) was 0.60 fold and the “Relative fold-increase … 2ΔΔ Ct, HYOU1” value (HYOU1) was 0.90 fold. For the same molecule, the “Relative fold-increase … 2ΔΔ Ct, MANF” value (MANF) was 1.03 fold.

For `CCCCCCCC(=O)NCCc1ccc(OC(C)=O)c(OC(C)=O)c1` [A-NOD, N-(3,4-bisacetoxyphenylethyl)octanamide], the “ESRE-mediated transcription (luciferase chemiluminescence)” value [2] was “did not significantly induce transcription”, the “LDH activity (LDH release, OD490) compared to untreated cell control (Md)” value [1] was “significantly lower” and the “anti-VCAM-1 antibody binding (TNF-α mediated VCAM-1 expression)” value (VCAM-1) was “in the absence of A-NOD or NOD showed strong anti-VCAM-1 antibody binding in comparison to the cells co-treated with A-NOD or NOD”. The anti-HO1 antibody binding (HO1 (heme oxygenase-1)) was “showed anti-HO1 antibody binding”.

With `NCCc1ccc(O)c(O)c1` [dopamine, 4-(2-aminoethyl)benzene-1,2-diol] the “body weight lost due to the ARF” value (Lewis rats [3]; osmotic minipump) was ~11%.

In the case of `CCCCCCCC(=O)NCCc1ccc(O)c(O)c1` [NOD, N-octanoyl dopamine], the “change in body weight before and after the ARF (percent of original body weight)” value (Lewis rats [3]) is reported as “no significant change; also recorded: not significantly different from 100%”, the “renal function as measured by serum creatinine concentration” value (Lewis rats [4]) is reported as “significantly improved renal function” and the “necrotic tissue in kidney” value (Lewis rats [5]) is reported as “less necrotic tissue”. The “number of inflammatory ED1-cells in renal tissue” value (Lewis rats [5]; P<0.01) was “significantly reduced number of ED1-cells”, the “TNF-α activity in the renal tissue as measured by PCR” value (TNF-α) was “significantly reduced” and the “ESRE-mediated transcription (luciferase chemiluminescence)” value [2] was “strongly induce ESRE-mediated transcription”. For the same molecule, the “Relative fold-increase … 2ΔΔ Ct, DDIT3” value (DDIT3) was 37.80 fold, the “Relative fold-increase … 2ΔΔ Ct, HSPA5” value (HSPA5) was 11.40 fold and the “Relative fold-increase … 2ΔΔ Ct, HYOU1” value (HYOU1) was 5.17 fold. For the same molecule, the “Relative fold-increase … 2ΔΔ Ct, MANF” value (MANF) was 4.53 fold, the “UPR gene transcription under hypoxic conditions” value (UPR target genes; hypoxic) was “significantly higher levels of transcription” and the “UPR gene transcription under normoxic conditions” value (UPR target genes; normoxic) was “only NOD induced UPR gene transcription”. For the same molecule, the “inhibition of PDI activity” value [6] was “inhibits PDI in a dose-dependent manner”, the “LDH activity (LDH release, OD490) compared to untreated cell control (Md)” value [1] was “significantly lower” and the “anti-VCAM-1 antibody binding (TNF-α mediated VCAM-1 expression)” value (VCAM-1) was “in the absence of A-NOD or NOD showed strong anti-VCAM-1 antibody binding in comparison to the cells co-treated with A-NOD or NOD”. The anti-HO1 antibody binding (HO1 (heme oxygenase-1)) was “showed anti-HO1 antibody binding” and the “action on TRPV-1-receptors” value (TRPV-1-receptors) was “agonist”.

In the case of `CCCCCCCCNC(=O)c1cc(OC(C)=O)ccc1OC(C)=O` [BBNO], the “Relative fold-increase … 2ΔΔ Ct, DDIT3” value (DDIT3) is reported as 3.74 fold, the “Relative fold-increase … 2ΔΔ Ct, HSPA5” value (HSPA5) is reported as 1.08 fold and the “Relative fold-increase … 2ΔΔ Ct, HYOU1” value (HYOU1) is reported as 4.72 fold. The “Relative fold-increase … 2ΔΔ Ct, MANF” value (MANF) was 0.96 fold.

With `CCCCCCCC(=O)NCCc1ccc(O)cc1` [NOT, N-[2-(4-hydroxyphenyl)ethyl]octanamide] the “Relative fold-increase … 2ΔΔ Ct, DDIT3” value (DDIT3) was 1.12 fold, the “Relative fold-increase … 2ΔΔ Ct, HSPA5” value (HSPA5) was 0.94 fold and the “Relative fold-increase … 2ΔΔ Ct, HYOU1” value (HYOU1) was 1.26 fold. For the same molecule, the “Relative fold-increase … 2ΔΔ Ct, MANF” value (MANF) was 1.08 fold.
